Assay results reported in patent US20100210649A1, “PYRIDAZINONES AND FURAN-CONTAINING COMPOUNDS” (Sloan-Kettering Institute for Cancer Research, priority 2006, published 2010).
Like-named read-outs stand apart in the source and are kept apart here.

What was measured:
H1975 = assay: Non Small Cell Lung Cancer proliferation assay (Alamar Blue reduction), H1975; type: cell-based, human; details: Homo sapiens
In short: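 Compounds are tested at 1% DMSO final concentration against adherent NSCLC cells for 48 h at 37° C, with cytotoxicity measured by Alamar Blue reduction after a further 48 h incubation.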

H1118 = assay: Non Small Cell Lung Cancer proliferation assay (Alamar Blue reduction), H1118; type: cell-based; details: Homo sapiens; H1118; 12 point doubling dilution 10 uM to 5 nM; 48 h treatment, alamar blue additional 48 h; read-out: IC50 H1118
Description: Non Small Cell Lung Cancer Proliferation Assay. To perform the assay, the Non Small Cell Lung Cancer lines are diluted in media and plated into 384 well microplates at a final density of 250 cells in […]. To ensure consistency and minimal pipetting error, the cells are plated using the Multidrop 384 with the following settings: Rocker Switch set at 384, Volume 45 and Column 24.
Low Controls for this assay are made by treating Non Small Cell Lung Cancer cells with 5 ul of staurosporine at 250 uM in 10% DMSO and 1% SDS. [Final concentration in this assay is 25 uM staurosporine in 1% DMSO and 0.1% SDS.]
High Controls for this assay are made by treating Non Small Cell Lung Cancer cells with 5 ul of 10% DMSO. [Final concentration in this assay is 1% DMSO].
The remaining wells of the 384 microplate may be treated with different compounds depending on the study. Important Note: All compounds for testing in this assay should be done at the final concentration of 1% DMSO.
After addition, the cells are placed in cell culture incubator at 37° C. for 48 hours for complete treatment.
After drug treatment, cytotoxicity is measured by Alamar Blue reduction. 5 μL of Alamar Blue is added to the 384 microplates using the Flexdrop.
The cells are incubated for 48 hours at 37° C. to complete the Alamar Blue reduction.
The final step in the assay is to measure the amount of Alamar Blue reduction. […] The Alamar Blue fluorescence is measured at an excitation of 530 nm and emission of 590 nm.
For the NSCLC project, the cell based assay was screened against a small molecule library of approximately 200,000 compounds. The compound library is stored in our automated robotic freezer (Biophile) at −20° C. in 100% DMSO. Compound freeze and thaw cycles are kept to a minimum. Compounds for use are diluted into the appropriate concentration and plated into 384 well microplates using our custom built low volume 384-well head tool (TPS 384, Apricot Designs Inc., CA, USA). This assay was performed on a fully automated linear track robotic platform (CRS F3 Robot System, Thermo Electron Corp., Ontario, Canada) utilizing several integrated peripherals for plate handling, liquid dispensing, and readout detection. First, non-small cell lung cancer cell lines are dispensed into 384 well microplates (Corning #3712 Tissue Culture Treated Plate, Corning, N.Y., USA) with 5 μL of test compounds at 100 uM in 10% DMSO for screening studies or […] in 10% DMSO to 50 nM in 10% DMSO for dose response studies. The microplates are then placed at 37° C. for 48 hours to complete treatment of cells with compounds. Next, 5 ul of alamar blue was added using a liquid dispenser (Flexprop Precision Dispenser, Perkin Elmer, Mass., USA) and incubated for 48 hours at 37° C. The alamar blue prompt fluorescence was measured on Victor V (Victor^3 V, Perkin Elmer, Mass., USA) and output data files were loaded into ORIS (Oncology Research Informatics System, MSKCC, NY, USA), a screening data acquisition and analysis platform.
The dose response studies were done with the following standard procedure. First, the cells were counted and dispensed at 250 cells/well into 384-well microplates with compound. The cells were incubated for 48 hours at 37 C to complete treatment, and then alamar blue was added for an additional 48 hours. Finally, alamar blue reduction was measured and the data was loaded into ORIS, our data screening acquisition platform.

in vitro = details: human
Description: NHBE (normal human bronchiolar epithelial cells) are primary cells obtained from donor lungs and commercially available from Cambrex. The HPL1D (human peripheral lung epithelial) cell line has been immortalized with the SV40 large T-antigen. WI-38: human lung fibroblast cell line. HPLID, NHBE and WI-38 cells will serve as controls in the chemical screens. WT: wildtype; WT*: over-expressed wildtype.
Compounds were tested in dose response studies from […] to 5 nM against several non small cell lung cancer lines: H358, H827, H1118, H1650, H1734, H1975, H2030, and H3255, and were also studied in a 72 hour cytotoxicity assay against the NHBE and WI-38 cell lines.

[1] = NCI-H1975, 48 h, H1975, 12 point doubling dilution 10 uM to 5 nM, 48 h treatment, alamar blue additional 48 h, read-out: IC50 H1975
[2] = NCI-H1975, dose response 10 M to 5 nM, IC50, read-out: Dose Response (uM) H1975

| SMILES | IC50 (H1975; [1]) [µM] | IC50 (H1975; [2]) [µM] | IC50 (H1118) [nM] | IC50 at 72 h (in vitro; CytoTox (uM) NHBE) [µM] | IC50 at 72 h (in vitro; CytoTox (uM) WI-38) [µM] |
| --- | --- | --- | --- | --- | --- |
| O=c1c(Cl)c(Cl)cnn1-c1ccc2c(c1)CCC2 [compound 267066] | 2.23 | 0.19 | 2730 | 1.74 | 5.37 |
| Cc1nc2cc(-n3ncc(Cl)c(Cl)c3=O)ccc2s1 [compound 267067] | > 10 | 0.45 | > 10000 | > 10 | > 10 |
| O=c1c(Cl)c(Cl)cnn1Cc1ccccc1 [compound 267069] | 3.6 | 2.16 | 3210 | 7.32 | > 10 |
| Cc1ccc(-n2ncc(Cl)c(Cl)c2=O)cc1Cl [compound 267070] | > 10 | 0.91 | > 10000 | > 10 | > 10 |
| O=c1c(Br)c(Br)cnn1-c1cccc(C(F)(F)F)c1 [compound 267072] | 0.93 | 0.2 | 1210 | 1.43 | 2.17 |
| O=c1c(Cl)c(Cl)cnn1-c1ccc(Cl)cc1Cl [compound 267077] | 2.08 | 0.05 | 3730 | 1.1 | 1.74 |

Stronger by IC50 (H1975; [1]), values ahead:

| IC50 (H1975; [1]) [µM] | IC50 (H1975; [2]) [µM] | IC50 (H1118) [nM] | SMILES | IC50 at 72 h (in vitro; CytoTox (uM) NHBE) [µM] | IC50 at 72 h (in vitro; CytoTox (uM) WI-38) [µM] |
| --- | --- | --- | --- | --- | --- |
| 0.8 | 0.5 | 1030 | Cc1cccc(-n2ncc(I)c(I)c2=O)c1 [compound 267085] | 2.88 | 5.51 |
| 0.41 | 0.44 | 570 | NCCCOc1cccc(-n2ncc(Br)c(Br)c2=O)c1 [compound 273634] | 2.94 | 4.53 |
| 0.37 | 0.25 | 480 | O=c1c(Cl)c(Cl)cnn1-c1ccc2c(c1)OCCO2 [compound 267068] | 1.56 | 3.96 |
| 0.36 | 0.22 | 410 | Cc1cccc(-n2ncc(Br)c(Br)c2=O)c1 [compound 267071] | 1.61 | 2.61 |
| 0.24 | 0.23 | 270 | COc1cccc(-n2ncc(Br)c(Br)c2=O)c1 [compound 267083] | 1.85 | 2.6 |
| 0.21 | 0.23 | 230 | COCCOc1cccc(-n2ncc(Br)c(Br)c2=O)c1 [compound 267084] | 2.56 | 2.33 |
| 0.16 | 0.09 | 100 | O=c1c(Br)c(Br)cnn1-c1ccccn1 [compound 267073] | 1.33 | 0.89 |
| 0.16 | 0.2 | 150 | O=c1c(Cl)c(Cl)cnn1-c1ccccn1 [compound 267090] | 1.43 | 1.19 |
